In Sander's compilation of Henry's law constants (doi:10.1080/09593338709384529):

Assay: Henry solubility constant Hcp at 298.15 K (mol/(m3 Pa))
Conditions: reference: Albanese et al. (1987)

Row | Compound | Henry solubility constant Hcp
1 | ClCC(Cl)CCl [1,2,3-trichloropropane] | 0.033
2 | CC(Br)CBr (stereo not given) [1,2-dibromopropane] | 0.0053
3 | CC(Cl)CCl (stereo not given) [1,2-dichloropropane] | 0.0049
4 | ClCCCCl [1,3-dichloropropane] | 0.0085
5 | ClCCCCCl [1,4-dichlorobutane] | 0.012
6 | C=C(Cl)CCl [2,3-dichloropropene] | 0.0035
7 | ClC/C=C/CCl [(E)-1,4-dichloro-2-butene] | 0.017
8 | ClC/C=C\CCl [(Z)-1,4-dichloro-2-butene] | 0.01
9 | Cl/C=C\CCl [cis-1,3-dichloropropene] | 0.0042
10 | Cl/C=C/CCl [trans-1,3-dichloropropene] | 0.0056
